Measured values from patent publication US11802285B2, “Cytotoxic T cell response modifiers” (DEUTSCHES KREBSFORSCHUNGSZENTRUM STIFTUNG DES ÖFFENTLICHEN …, priority 2013, dated 2023).

Test system: MCF7 breast cancer cells
Assay: Luc-CTL assay (luciferase-based readout of CTL-mediated tumor cell lysis, with viability control without CTLs)
Details: for T cell mediated lysis of luciferase transfected MCF7 breast cancer target cells (reduction of luciferase activity): co-culture with survivin specific CTL clone, deconvoluted siRNA pool (FIG. 5A, 10A); for viability of luciferase transfected MCF7 breast cancer cells: in the absence of T cells (FIG. 5B, 10B)
Description: In order to comprehensively identify immune checkpoint regulators in an unbiased manner, we harnessed a previously described approach to measure tumor-specific T-cell cytotoxicity which is based on quantifying residual cell-associated luciferase expression following exposure of Luc-expressing cancer cells with CTLs (Brown et al., 2005). We adapted and extended aforementioned approach for high-throughput RNAi screening purposes and termed it ‘Luc-CTL’ assay. Briefly, the screening experiment was set up as follows: In total, three RNAi screens were performed in duplicate and reverse transfection of cells with siRNA pools was performed by delivering 15 μl of RPMI (Invitrogen) containing 0.05 μl of RNAiMAX (Invitrogen). After 30 min of incubation at room temperature, 3000 MCF7 cells (screen 1: MCF7 stably expressing luciferase, screen 2 and 3: wild-type MCF7 cells) in 30 μl of DMEM medium (Invitrogen) supplemented with 10% FBS (Invitrogen) were added to the siRNA transfection mix. Plates were then incubated at 37° C., 5% CO2. 24 h later, cells were either transiently transfected with a luciferase expression plasmid (screen 2) using TransIT-LT1 transfection reagent (Mirius Bio LLC, Madison, USA) according to the manufacturer's instructions or not (screen 1 and screen 3). 72 h post siRNA transfection cancer cells were either challenged with CTLs and anti-CD3×anti-EpCAM bi-specific antibody (screen 1 and screen 2; condition with addition of CTLs) or not (screen 1 and screen 2; condition without addition of CTLs and screen 3). […]
Plate reader data from RNAi screens were statistically analyzed using the cellHTS2 package in R/Bioconductor (Boutros et al., 2006). […] For screen 1 and screen 2, scores from both conditions, i.e. addition of CTLs and without addition of CTLs, were further quantile normalized against each other using the aroma.light package in R. Differential scores were calculated by subtracting quantile normalized scores without addition of CTLs from scores derived with addition of CTLs. In order to robustly identify genes that positively modulate CTL mediated cytotoxicity and to avoid biases potentially introduced by employing CTLs from different donors and employing genetically engineered as well as unmodified MCF7 cells, the 150 top-ranking genes as evaluated by the differential score were extracted for the independent screens 1 and 2 and the overlap between candidate lists was determined. […] Thereby, siRNAs generally affecting cell viability, as determined by intracellular ATP levels, could be excluded.
In order to identify tumor-associated genes that inhibit cell killing by cytotoxic T lymphocytes (CTL), we adapted a luciferase-based readout assay, henceforth referred to as Luc-CTL assay (FIG. 1A). […]

Row | Substance | T cell mediated lysis of luciferase transfected MCF7 breast cancer target cells (reduction of luciferase activity) | viability of luciferase transfected MCF7 breast cancer cells
1 | TAS2R3 siRNA s4: TAS2R3 siRNA, sequence GCAGACAUUUGUAGUGAUG, SEQ ID NO: 4 (listed as RNA, chemistry not given here) | significantly increase | no impact
2 | TAS2R3 siRNA s3: TAS2R3 siRNA, sequence CCGCAUCUCUGAUCAAUGA, SEQ ID NO: 3 (listed as RNA, chemistry not given here) | significantly increase | no impact
